Test results: ChEMBL document CHEMBL4052585 (J Med Chem, 2017)
Converted amounts (≈) assume the structure as drawn.

Key:
[1] = molecular target: T1, Mitogen-activated protein kinase kinase kinase 14 (Homo sapiens, UniProt Q99558); assay: Inhibition of NIK (unknown origin) expressed in HEK293 cells assessed as decrease in NFkappaB signal after 24 hrs by dual glo luciferase reporter gene assay; assay type: cell-based
[2] = physchem; conditions: buffer, pH 7.4
[3] = test system: HEK293; assay: Cytotoxicity against HEK293 cells assessed as effect on cell viability after 24 hrs by HSV-TK reporter assay; assay type: cell-based; conditions: Homo sapiens, HEK293, 24 h
[4] = molecular target: PI3-kinase p110-delta/p85-alpha (Homo sapiens, UniProt O00329); assay: Inhibition of N-terminal His6-tagged recombinant full-length human p110delta/untagged recombinant full length human p85alpha expressed in baculovirus infected Sf21 insect cells using PIP2:3PS lipid substrate after 120 mins by ADP-Glo assay
[5] = molecular target: T1, Mitogen-activated protein kinase kinase kinase 14; assay: Inhibition of NIK in human HeLa cells assessed as decrease in antilymphotoxin-beta receptor antibody-stimulated p52 translocation from cytoplasm to nucleus after 5 hrs; assay type: cell-based
[6] = molecular target: T1, Mitogen-activated protein kinase kinase kinase 14; assay: Inhibition of NIK (unknown origin) after 1 to 2 hrs by ADP-FP assay
[7] = Apparent permeability across MDCK cells at 100 uM; assay type: ADME, cell-based, Canis lupus familiaris; conditions: dog
[8] = Protein binding in human plasma; assay type: ADME, cell-free; conditions: read-out: PPB (converted)
[9] = Thermodynamic solubility of compound at pH 7.4; assay type: physicochemical; conditions: buffer, read-out: Therm_solubility
[10] = Volume of distribution in Sprague-Dawley rat; assay type: ADME; conditions: in vivo
[11] = Plasma clearance in cynomolgus monkey; assay type: ADME, Macaca fascicularis
[12] = Plasma clearance in Sprague-Dawley rat; assay type: ADME
[13] = Oral bioavailability in Sprague-Dawley rat at 5 mg/kg; assay type: ADME, organism-based; conditions: in vivo
[14] = Volume of distribution in cynomolgus monkey; assay type: ADME, Macaca fascicularis; conditions: in vivo
[15] = Plasma clearance in beagle dog; assay type: ADME, Canis lupus familiaris
[16] = Volume of distribution in beagle dog; assay type: ADME, Canis lupus familiaris; conditions: in vivo
[17] = Oral bioavailability in beagle dog at 5 mg/kg; assay type: ADME, organism-based, Canis lupus familiaris; conditions: in vivo
[18] = molecular target: T1, Mitogen-activated protein kinase kinase kinase 14; assay: Binding affinity to NIK (unknown origin) by SPR method

T1 sequence (Q99558 whole entry): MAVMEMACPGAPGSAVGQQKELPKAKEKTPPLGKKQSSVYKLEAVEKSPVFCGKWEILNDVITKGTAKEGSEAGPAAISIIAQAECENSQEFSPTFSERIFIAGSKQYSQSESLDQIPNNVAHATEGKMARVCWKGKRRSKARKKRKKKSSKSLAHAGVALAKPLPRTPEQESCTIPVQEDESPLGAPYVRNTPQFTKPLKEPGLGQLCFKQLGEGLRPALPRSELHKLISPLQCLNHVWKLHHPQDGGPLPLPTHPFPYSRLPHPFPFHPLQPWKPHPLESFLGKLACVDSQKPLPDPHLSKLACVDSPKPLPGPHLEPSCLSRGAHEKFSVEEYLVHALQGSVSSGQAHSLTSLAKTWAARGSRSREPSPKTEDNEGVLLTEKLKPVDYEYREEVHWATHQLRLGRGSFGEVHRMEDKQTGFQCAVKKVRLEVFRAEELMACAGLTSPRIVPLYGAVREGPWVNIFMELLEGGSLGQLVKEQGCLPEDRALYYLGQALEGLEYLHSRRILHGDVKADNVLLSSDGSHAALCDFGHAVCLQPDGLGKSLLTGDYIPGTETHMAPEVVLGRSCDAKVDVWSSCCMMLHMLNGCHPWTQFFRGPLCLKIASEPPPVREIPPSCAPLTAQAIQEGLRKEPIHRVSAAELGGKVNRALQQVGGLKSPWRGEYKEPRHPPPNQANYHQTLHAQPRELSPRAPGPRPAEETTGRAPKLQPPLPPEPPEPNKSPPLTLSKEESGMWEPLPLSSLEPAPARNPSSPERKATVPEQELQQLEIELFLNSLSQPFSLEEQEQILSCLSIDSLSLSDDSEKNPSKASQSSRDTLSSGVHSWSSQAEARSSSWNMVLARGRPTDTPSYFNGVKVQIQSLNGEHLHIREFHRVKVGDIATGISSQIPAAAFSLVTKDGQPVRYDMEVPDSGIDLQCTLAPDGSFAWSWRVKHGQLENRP
PI3-kinase p110-delta/p85-alpha, sequence (P27986 whole entry): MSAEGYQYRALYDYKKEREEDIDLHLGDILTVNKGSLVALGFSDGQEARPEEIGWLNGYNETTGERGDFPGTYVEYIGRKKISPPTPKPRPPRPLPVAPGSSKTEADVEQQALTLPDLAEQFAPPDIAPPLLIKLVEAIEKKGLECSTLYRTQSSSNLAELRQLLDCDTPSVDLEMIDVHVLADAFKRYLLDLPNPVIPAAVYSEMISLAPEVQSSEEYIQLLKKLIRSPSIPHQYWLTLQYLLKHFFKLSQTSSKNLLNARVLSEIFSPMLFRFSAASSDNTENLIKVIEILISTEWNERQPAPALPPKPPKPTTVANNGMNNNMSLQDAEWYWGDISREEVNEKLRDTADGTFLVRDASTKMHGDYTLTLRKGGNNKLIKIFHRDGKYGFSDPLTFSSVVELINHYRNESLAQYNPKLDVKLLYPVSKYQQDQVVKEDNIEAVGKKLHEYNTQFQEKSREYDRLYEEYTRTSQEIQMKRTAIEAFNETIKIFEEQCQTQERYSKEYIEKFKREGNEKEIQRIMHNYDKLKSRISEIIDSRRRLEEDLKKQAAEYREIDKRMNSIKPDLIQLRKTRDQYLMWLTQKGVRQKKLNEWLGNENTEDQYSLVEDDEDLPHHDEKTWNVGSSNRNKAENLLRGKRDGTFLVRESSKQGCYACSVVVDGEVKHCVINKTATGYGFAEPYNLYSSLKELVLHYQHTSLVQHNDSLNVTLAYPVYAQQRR
PI3-kinase p110-delta/p85-alpha, sequence (O00329 whole entry): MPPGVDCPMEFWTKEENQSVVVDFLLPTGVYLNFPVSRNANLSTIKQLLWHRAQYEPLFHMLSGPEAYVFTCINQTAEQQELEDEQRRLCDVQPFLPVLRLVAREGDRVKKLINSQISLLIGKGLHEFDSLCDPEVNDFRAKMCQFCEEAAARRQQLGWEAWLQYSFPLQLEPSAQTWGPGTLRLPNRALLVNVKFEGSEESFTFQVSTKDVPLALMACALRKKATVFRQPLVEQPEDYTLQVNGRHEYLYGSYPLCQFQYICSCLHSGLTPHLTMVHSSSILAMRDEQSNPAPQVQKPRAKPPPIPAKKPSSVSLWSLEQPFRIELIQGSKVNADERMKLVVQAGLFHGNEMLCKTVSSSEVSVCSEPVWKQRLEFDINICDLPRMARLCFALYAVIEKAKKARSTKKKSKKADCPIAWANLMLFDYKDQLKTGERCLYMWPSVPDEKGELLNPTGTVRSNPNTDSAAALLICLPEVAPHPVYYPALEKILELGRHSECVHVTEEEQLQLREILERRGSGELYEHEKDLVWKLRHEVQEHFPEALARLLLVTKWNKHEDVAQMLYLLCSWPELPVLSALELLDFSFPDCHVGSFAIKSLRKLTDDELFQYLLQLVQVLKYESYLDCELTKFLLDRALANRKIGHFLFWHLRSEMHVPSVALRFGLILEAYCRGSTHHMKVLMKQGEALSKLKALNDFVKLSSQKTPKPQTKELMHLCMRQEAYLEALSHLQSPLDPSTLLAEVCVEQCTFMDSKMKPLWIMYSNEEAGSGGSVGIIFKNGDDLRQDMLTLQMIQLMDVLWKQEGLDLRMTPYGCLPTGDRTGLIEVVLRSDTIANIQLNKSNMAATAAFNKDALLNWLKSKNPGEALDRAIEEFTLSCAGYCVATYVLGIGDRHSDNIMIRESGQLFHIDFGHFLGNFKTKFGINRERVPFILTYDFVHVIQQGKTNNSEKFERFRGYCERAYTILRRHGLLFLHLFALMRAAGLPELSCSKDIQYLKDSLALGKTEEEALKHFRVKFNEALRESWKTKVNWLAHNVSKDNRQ

SMILES | logD [2] | Ki [4] | Ki [6] | further results
Cc1cc([C@](C)(O)C#Cc2cc3c(cc2F)OCCn2cc(C(N)=O)nc2-3)no1 | 1.1 | 47 nM | – | IC50 [1]: 156 nM; IC50 [3]: > 20000 nM; IC50 [5]: 607 nM
C[C@@H]1Cn2cc(C(N)=O)nc2-c2cc(C#CC(C)(C)O)ccc2O1 | – | > 1000 nM | – | –
C[C@H]1Cn2cc(C(N)=O)nc2-c2cc(C#CC(C)(C)O)ccc2O1 | – | > 1000 nM | – | –
Cc1cc([C@](C)(O)C#Cc2cc3c(cc2F)C2CC(C2)n2cc(C(N)=O)nc2-3)no1 | 3.3 | > 1000 nM | 0.4 nM | IC50 [1]: 102 nM; Papp at 100 µM [7]: 10.1 ×10⁻⁶ cm/s; fraction unbound [8]: 0.09; IC50 [3]: > 20000 nM; solubility thermodynamic [9]: 32 µg/mL (≈ 78.7 µM); Vd [10]: 0.84 L/kg; clearance [11]: 13 mL/min/kg; IC50 [5]: 199 nM; clearance [12]: 24 mL/min/kg; bioavailability [13]: 27%; Vd [14]: 1.9 L/kg
CC(C)(O)C#Cc1ccc2c(c1)-c1nc(C(N)=O)sc1C(F)(F)CO2 | – | > 1000 nM | 40 nM | –
CC(C)(O)C#Cc1ccc2c(c1)-c1nc(C(N)=O)sc1C(O)CO2 (racemic) | – | > 1000 nM | 101 nM | –
CNC(=O)c1c(C(N)=O)nc2n1CCOc1ccc(C#C[C@@](C)(O)c3cc(C)on3)cc1-2 | 3 | > 1000 nM | 0.47 nM | IC50 [1]: 40 nM; clearance [15]: 7 mL/min/kg; Papp at 100 µM [7]: 7.5 ×10⁻⁶ cm/s; fraction unbound [8]: 0.06; IC50 [3]: 13000 nM; solubility thermodynamic [9]: 9 µg/mL (≈ 20.7 µM); Vd [10]: 1.4 L/kg; clearance [11]: 21 mL/min/kg; Vd [16]: 1.1 L/kg; bioavailability [17]: 140%; IC50 [5]: 67 to 87 nM; clearance [12]: 7 mL/min/kg; bioavailability [13]: 51%; Vd [14]: 0.9 L/kg
NC(=O)c1cn2c(n1)-c1cc(C#CC3(O)CCC3)c(F)cc1OCC2 | 3.4 | – | 20.2 nM | –
CN1CC[C@](O)(C#Cc2cc3c(cc2F)OCCn2cc(C(N)=O)nc2-3)C1=O | 0.94 | – | – | –
NC(=O)c1ccc2c(n1)-c1sccc1CCO2 | 2.5 | – | 1280 nM | –
NC(=O)c1cccn1Cc1ccccc1Cl | – | – | – | Kd [18]: 69000 nM
CN1CCCC(O)(C#Cc2cc3c(cc2F)OCCn2cc(C(N)=O)nc2-3)C1=O (racemic) | 1.5 | – | 3 nM | –
CC(C)(O)C#Cc1ccc2c(c1)-c1nc(C(N)=O)sc1CCO2 | 2.4 | 216 nM | 28 nM | –
NC(=O)c1cn2c(n1)-c1cc(C#CC3(O)COC3)c(F)cc1OCC2 | 1.2 | – | 4280 nM | –
CC(C)(O)C#Cc1ccc2c(c1)-c1nc(C(N)=O)cn1C1CC2C1 | – | > 1000 nM | 20 nM | –

Second part, led by results:

logD [2] | Ki [4] | Ki [6] | SMILES | further results
1.4 | 320 nM | 310 nM | CC(C)(O)C#Cc1ccc2c(c1)-c1nc(C(N)=O)cn1CCO2 | –
2.4 | – | 1.5 nM | CC(O)(C#Cc1cc2c(cc1F)OCCn1cc(C(N)=O)nc1-2)c1nccs1 (racemic) | –
1.9 | > 1000 nM | 41 nM | CC(C)(O)C#Cc1cc2c(cc1F)OCCn1c-2nc(C(N)=O)c1C1CC1 | –
1.4 | – | 986 nM | CN(C)C(=O)C(C)(O)C#Cc1cc2c(cc1F)OCCn1cc(C(N)=O)nc1-2 (centres undefined) | –
3.4 | > 1000 nM | 7.5 nM | CC(C)(O)C#Cc1cc2c(cc1F)OCCn1c-2nc(C(N)=O)c1Cc1ccccc1F | –
1.7 | – | 36 nM | CC(C)(O)C#Cc1cc2c(cc1F)OCCn1cc(C(N)=O)nc1-2 | –
1.4 | – | 3.2 nM | CC(O)(C#Cc1cc2c(cc1F)OCCn1cc(C(N)=O)nc1-2)c1cccnn1 (racemic) | –
– | > 1000 nM | 2.9 nM | CC(C)(O)C#Cc1cc2c(cc1F)C1CC(C1)n1cc(C(N)=O)nc1-2 | –
1.4 | > 1000 nM | – | CN(C)C(=O)c1c(C(N)=O)nc2n1CCOc1cc(F)c(C#CC(C)(C)O)cc1-2 | –
2.5 | > 1000 nM | 2 nM | CNC(=O)c1c(C(N)=O)nc2n1CCOc1cc(F)c(C#CC(C)(C)O)cc1-2 | –
– | > 1000 nM | 9.9 nM | Cn1nccc1Cc1c(C(N)=O)nc2n1CCOc1cc(F)c(C#CC(C)(C)O)cc1-2 | –
1.8 | > 1000 nM | 7 nM | CC(C)(O)C#Cc1cc2c(cc1F)OCCn1c-2nc(C(N)=O)c1-c1cn[nH]c1 | –
– | – | 8.7 nM | CC(O)(C#Cc1cc2c(cc1F)OCCn1cc(C(N)=O)nc1-2)CF (racemic) | –
1.6 | > 1000 nM | 201 nM | CC(C)(O)C#Cc1cc2c(cc1F)OCCn1c-2nc(C(N)=O)c1C#N | –
0.74 | – | – | CN1CC[C@@](O)(C#Cc2cc3c(cc2F)OCCn2cc(C(N)=O)nc2-3)C1=O | –
2.2 | > 1000 nM | 35.5 nM | Cc1c(C(N)=O)nc2n1CCOc1cc(F)c(C#CC(C)(C)O)cc1-2 | –
